Laboratory results: patent US8993589B2, “Imidazopyridine derivatives which inhibit the secretion of gastric acid” (priority 2008, dated 2015)

Tested on: acid secretion in female rats
Assay: Inhibiting effect on acid secretion in female rats
Format: in vivo, rat (Sprague-Dawley
Settings: rats administered 1 μmol/kg
Protocol: Inhibiting Effect on Acid Secretion in Female Rats
Female rats of the Sprague-Dawley strain were used. They were equipped with cannulated fistulae in the stomach (lumen) and the upper part of the duodenum, for collection of gastric secretions and administration of test substances, respectively. A recovery period of 14 days after surgery was allowed before testing commenced.
Before secretory tests, the animals were deprived of food but not water for 20 h. The stomach was repeatedly washed through the gastric cannula with tap water (+37° C.), and 6 ml Ringer-Glucose given subcutaneously. […] Gastric juice samples were titrated to pH 7.0 with NaOH, 0.1M, and acid output calculated as the product of titrant volume and concentration.
Further calculations were based on group mean responses from 4-6 rats. In the case of administration during stimulation, the acid output during the periods after administration of test substance or vehicle were expressed as fractional responses, setting the acid output in the 30-min period preceding administration to 1.0. Percentage inhibition was calculated from the fractional responses elicited by test compound and vehicle. In the case of administration before stimulation, percentage inhibition was calculated directly from acid output recorded after test compound and vehicle. […]

**Q.** Which “maximal inhibition of acid secretion” value does the source give for Cc1cccc(C)c1CNc1cc(C(=O)NCCOC(=O)CCC(=O)O)cn2c(C)c(C)nc12 [Example 2, 4-{2-[({8-[(2,6-dimethylbenzyl)amino]-2,3-dimethylimidazo[1,2-a]pyridin-6-yl}carbonyl)amino]ethoxy}-4-oxobutanoic acid] here?
**A.** Its value is 70%.

**Q.** How did the “maximal inhibition of acid secretion” value turn out when Cc1cccc(C)c1CNc1cc(C(=O)NCCOC(=O)CCCC(=O)O)cn2c(C)c(C)nc12 [Example 1, 5-{2-[({8-[(2,6-dimethylbenzyl)amino]-2,3-dimethylimidazo[1,2-a]pyridin-6-yl}carbonyl)amino]ethoxy}-5-oxopentanoic acid] was run?
**A.** The value was 100%.
